≈ marks a conversion by molar mass, not a printed value.
Tests used:
[1] = tested on: Pimephales promelas; conditions: chronic/long-term; duration: 31 days; growth
[2] = tested on: Encarsia formosa; conditions: not reported; mortality
[3] = tested on: Colinus virginianus; conditions: acute; oral; diet; mortality
[4] = tested on: Rattus norvegicus
[5] = tested on: Apis mellifera; conditions: acute; duration: 48 hours; dermal; mortality
[6] = tested on: Oncorhynchus mykiss; conditions: acute; duration: 96 hours; mortality
[7] = tested on: Canidae; conditions: oral, Dog Other
[8] = tested on: Daphnia magna; conditions: chronic/long-term; duration: 21 days; reproduction
[9] = tested on: Chalcophaps sp.; conditions: acute; oral; unspecified; mortality
[10] = tested on: Lepomis macrochirus; conditions: acute; duration: 96 hours; mortality
[11] = tested on: Tagia sp.
[12] = tested on: Anas platyrhynchos; conditions: for LC50: short-term, oral, feed, mortality
[13] = tested on: Coturnix japonica
[14] = tested on: Perdix sp.; conditions: acute; oral; unspecified; mortality
[15] = tested on: Phasianus sp.; conditions: acute; oral; unspecified; mortality

Question: CCCCc1c(C)nc(NCC)nc1OS(=O)(=O)N(C)C [Bupirimate] was tested. Which NOEC [1] did it give?
Answer: 0.1 mg/L

Question: And the LEL [2]?
Answer: 750 g/ha

Question: And the LC50 [3]?
Answer: > 2580 mg/kg-day

Question: And the LD50 ([4]; acute, oral, mortality)?
Answer: 4000 mg/kg-day

Question: And the LD50 [5]?
Answer: > 50 µg/piece

Question: And the LC50 [6]?
Answer: 1 µg/mL (≈ 3.16 µM)

Question: And the NOAEL ([7]; chronic, duration: 2 years)?
Answer: 5 mg/kg-day

Question: And the NOAEL ([7]; subchronic, duration: 90 days)?
Answer: 15 mg/kg-day

Question: What about the NOEC [8] of the same compound?
Answer: 0.56 mg/L

Question: And the LD50 [9]?
Answer: > 2750 mg/kg-day

Question: What about the LC50 [10] of the same compound?
Answer: 1 µg/mL (≈ 3.16 µM)

Question: And the LC50 ([11]; acute, duration: 14 days, mortality)?
Answer: > 1000 mg/kg

Question: What about the NOEC ([11]; chronic/long-term) of the same compound?
Answer: 7.3 mg/kg

Question: And the LC50 [12]?
Answer: > 2090 mg/kg-day

Question: What about the LD50 ([13]; acute, oral, mortality) of the same compound?
Answer: > 5000 mg/kg-day

Question: And the NOEC ([13]; reproduction developmental)?
Answer: ≥ 98 mg/kg-day

Question: Which results are given for CCCCc1c(C)nc(NCC)[nH]c1=O [Ethirimol]?
Answer: LD50 [14]: > 3000 mg/kg-day; LC50 [3]: > 3380 mg/kg-day; LD50 [15]: > 3000 mg/kg-day; NOAEL ([4]; acute, neurology): 4000 mg/kg-day; NOAEL ([4]; chronic, duration: 2 years, clinical signs): 3.5 mg/kg-day; NOEL ([4]; chronic, mortality): 500 mg/kg-day; NOAEL ([4]; reproduction developmental, body weight): 5 mg/kg-day; NOEC ([12]; reproductive): 58 mg/kg-day; LC50 [12]: > 1960 mg/kg-day

— EPA's ToxValDB 9.5 (doi:10.2903/j.efsa.2010.1786)
